The text below walks through data of patent US20200247849A1, “PEPTIDE AGONISTS AND ANTAGONISTS OF TLR4 ACTIVATION” (PEPTICOM LTD, priority 2016, published 2020).

The subject of assay [1] is TLR4 with MD2 or CD14 co-receptor. The assay is described as follows: Reporter gene (SEAP) PAMP assay in NIH3T3 cells expressing TLR4 with MD2 or CD14 co-receptor. Format: cell-based. Set-up: key to PAMP assay (NIH3T3 cells) Induction with compound alone / PAMP assay (NIH3T3 cells) Induction with compound + LPS: 0: no effect of the compound alone/no effect of the compound in addition to LPS alone; +: small effect of the compound alone/small effect of the compound in addition to LPS alone; ++: intermediate effect of the comp. alone/intermediate effect of the comp. in add. to LPS alone; +++: strong effect of the compound alone/strong effect of the compound in addition to LPS alone. The following applies: for Co-Receptor/s: co-receptor (MD2/CD14) via which the effect occurs; for Co-Receptor/s / Activity: summary of FIGS. 6A-6V; for Activity: type of effect (activation/inhibition) on TLR4. From the text:
FIGS. 6A-6V show the dose response inhibitor/activator effects of the designed peptides using a reporter gene assay. The reporter gene assay is composed of NIH3T3 cells transfected with either MD2 or CD14 along with TLR4 and the NF-κB-inducible reporter gene Secreted Alkaline Phosphatase (SEAP) to monitor TLR4 activation (Burger-[…] al. 2010, A new cell-based innate immune receptor assay for the examination of receptor activity, ligand specificity, signaling pathways and the detection of pyrogens. […] The receptors are coupled to for the detection of inhibitory activity, cells were treated with the peptide prior to exposure to LPS and the response to LPS is measured at variable peptide doses (as labeled). The detection of cell activation was performed using the peptide alone, at variable doses, as indicated in the respective graphs. The following presents in more details the experimental procedures. Experimental setup: The cell-based Assay is performed with different NIH3T3 reporter cell lines (NIH 3T3 PRR SEAP-TLR4/CD14 or -TLR4/MD2) and the control cell line NIH 3T3 SEAP. The NIH3T3 SEAP cell line is used in order to determine the background of the alkaline phosphatase expression. It is a cell line stably transfected with only the reporter gene plasmid. For each assay a vial of the master cell bank is revitalized and seeded in a standard cell culture flask (75 cm^2 T-Flask) at day one. Cells are cultured in 20 ml culture media (DMEM supplemented with 10% FCS (heat inactivated), 50 units/ ml penicillin, 0.05 mg/ ml streptomycin and 2 mmol/ L L-glutamine). The cells are cultured at 37° C. in a 5% CO2 humidified atmosphere. At Day 1: For the PAMP Assay cells are seeded in a 96-well plate at a density of 0.3.10^5 cells/well in a final volume of 100 μl culture media (DMEM, 10% FCS (heat inactivated)). To ensure equal culture conditions the 96-well cell culture plates are placed side by side and cultivated in a humidified CO2 incubator (37° C. and 5% CO2). […] After a cultivation period of 24 h the media is removed and replaced with the respective volume of fresh media (DMEM, 0.5% FCS (heat inactivated)).The lyophilized peptides are stored in a freezer at -20° C. upon arrival. For the experiments they are dissolved in DMSO (to the highest possible concentration). Before opening the peptides are allowed to equilibrate to room temperature (in order to reduce the uptake of moisture). For each experiment the stock solution is diluted in DMEM to the appropriate working concentration. […] Sonication was also used to help dissolve the peptides. Immediately after replacing the media, the diluted peptides are applied in a serial dilution to the cells and directly after that the agonist is added to the cells. After adding peptide and […] the final volume in each well of a 96 well plate amounts 100 μl/well. The culture medium containing 0.5% FCS is used as a negative reference item. The induction is performed for 18 h at 37° C. and 5% CO2. At Day 3: To determine the final SEAP value, 50 μl of the supernatant is carefully transferred in a new 96-well plate (Greiner-F-plate) and 50 μl of the substrate (pNPP; p-nitrophenyl phosphate) is added. SEAP catalyzes the hydrolysis of pNPP to the final product para-nitrophenol (yellow) which can be detected by a photometric analysis using an UV-VIS reader at 405 nm. […] The results of FIGS. 6A-6V with respect to peptide activity are summarized in Table 1 above with respect to the type of effect of the respective peptide (activation/inhibition) and with respect to the corresponding co-receptor (MD2/CD14). Data concerning SEQ ID No. 22 with respect to co-receptor CD14 is in preparation.
In general terms: In a reporter assay the amount or activity of a reporter protein is the signal.

The test system of assay [2] is whole human blood. Put plainly: IL-1β ELISA after 24-hour incubation with whole human blood. It counts as cell-based. The note with it: for IL-1β ELISA after blood activation Induction with compound + LPS: LPS 100 pg/ml. Set-up: key: 0: no effect of the compound alone/no effect of the compound in addition to LPS alone; +: small effect of the compound alone/small effect of the compound in addition to LPS alone; ++: intermediate effect of the comp. alone/intermediate effect of the comp. in add. to LPS alone; +++: strong effect of the compound alone/strong effect of the compound in addition to LPS alone. The protocol:
One attribute of TLR-4 activation is the release of the pro-inflammatory cytokine Interleukin-1β (IL1β). Several of our discovered peptides were tested for IL1β induction by ELISA following a 24-hour incubation with whole human blood. IL1β induction was measured with increasing dosage of the peptides alone, or with a fixed dosage of LPS (100 pg/ml).

Non-standard residues stand in square brackets, D forms with d. No end group written: not given here. Chg = N[C@H](C(=O)O)C1CCCCC1; Nphe = O=C(O)CNCc1ccccc1; Ava = NCCCCC(=O)O

Take “1(N′) Ava-OH-2Leu-3Tyr-4Met-5Ser-6Leu-7Lys-8Trp-9Met (C′) ([Ava]LYMSLKWM; also: Ava-OH) [SEQ ID No. 4 (M1)]”: in assay [1], the Co-Receptor/s entry was “MD2/CD14”, the “PAMP assay (NIH3T3 cells) Induction with compound + LPS” value (from here on “PAMP assay … with compound + LPS”) was “++”, the “PAMP assay (NIH3T3 cells) Induction with compound alone” value (shortened to “PAMP assay … with compound alone”) was “++” and the Activity entry is listed as “Activator”. Besides, in assay [2], the “IL-1β ELISA after blood activation Induction with compound + LPS” value (“IL-1β ELISA … with compound + LPS” below) is given as “+++” and the “IL-1β ELISA after blood activation Induction with compound alone” value (shortened to “IL-1β ELISA … with compound alone”) was “+”.

Consider “(N′) 1(S)Glu-2(S)Trp-3Gly-4(S)Trp-5(S)Arg-6(S)Met-7(R,S)Ile-8Bzl(Gly) (C′) (EWGWRMI[Nphe]; also: Ile7 (R,S)) [SEQ ID No. 2 (M1)]”, for which, in assay [1], the Co-Receptor/s result is “MD2/CD14” and the Activity entry is “Activator”.

In the case of “(N′) Chg-2Leu-3Tyr-4Met-5Ser-6Leu-7Lys-8Trp-9Met (C′) ([Chg]LYMSLKWM) [SEQ ID No. 4 (M2)]”, in assay [1], the Co-Receptor/s entry is reported as “MD2/CD14”, the “PAMP assay … with compound + LPS” value was “++”, the “PAMP assay … with compound alone” value is listed as “++” and the Activity entry is “Activator”. In assay [2], the “IL-1β ELISA … with compound + LPS” value is recorded as “+++” and the “IL-1β ELISA … with compound alone” value is “+”.

Take EWGWRMII (Activator) [SEQ ID No. 2]: in assay [1], the Co-Receptor/s result was “MD2/CD14” and the Activity entry is recorded as “Activator”.

ILYKSLKWM (Activator) [SEQ ID No. 5]: in assay [1], the Co-Receptor/s entry is listed as “MD2/CD14” and the Activity result is recorded as “Activator”.

As to ILYMSLKWM (Activator) [SEQ ID No. 4], in assay [1], the Co-Receptor/s result is on record as “MD2/CD14”, the “PAMP assay … with compound + LPS” value is reported as “+++”, the “PAMP assay … with compound alone” value is given as “+” and the Activity result is reported as “Activator”. For the same substance, in assay [2], the “IL-1β ELISA … with compound + LPS” value is listed as “+++” and the “IL-1β ELISA … with compound alone” value is reported as 0.

Regarding “KKLMLII (at the C-terminus CH3 replace COOH) (KKLMLII-CH3) [SEQ ID No. 12]”, in assay [1], the Co-Receptor/s entry was “MD2/CD14” and the Activity entry is on record as “Inhibitor”.

Turning to MIPYGMRMM (Inhibitor) [SEQ ID No. 10], in assay [1], the Co-Receptor/s result is listed as “MD2” and the Activity result is on record as “Inhibitor”.

Take “PLWMMIKSMGSMMEMKK (Activator) [SEQ ID No. 3]”: in assay [1], the Co-Receptor/s result was “MD2” and the Activity result was “Activator”.

As to “RYETMSIMIKSGGKG (RYETMSIMIKSGGKY; Activator) [SEQ ID No. 1]”, in assay [1], the Co-Receptor/s result is “MD2/CD14” and the Activity entry was “Activator”.

Regarding “RYETMSIMIKSGGKG-(methyl group replacing C-terminus) [SEQ ID No. 1 (M3)]”, in assay [1], the Co-Receptor/s entry is reported as “MD2/CD14”, the “PAMP assay … with compound + LPS” value is given as “+”, the “PAMP assay … with compound alone” value is on record as “+” and the Activity entry is on record as “Activator”. For the same substance, in assay [2], the “IL-1β ELISA … with compound + LPS” value is 0 and the “IL-1β ELISA … with compound alone” value is 0.

On to “c[IGFMMMKKEF] (cyclic; Activator, cyclic) [SEQ ID No. 8]”, for which, in assay [1], the Co-Receptor/s result was “MD2/CD14” and the Activity result is reported as “Activator”.

For “c[IWSRSW] (cyclic; Inhibitor, cyclic) [SEQ ID No. 15]”, in assay [1], the Co-Receptor/s result is recorded as “MD2” and the Activity entry was “Inhibitor”.

Regarding “c[SIWDTMW] (cyclic; Inhibitor, cyclic) [SEQ ID No. 14]”, in assay [1], the Co-Receptor/s result is “MD2” and the Activity entry is reported as “Inhibitor”.

In the case of “c[SWEFLW] (cyclic; Inhibitor, cyclic) [SEQ ID No. 13]”, in assay [1], the Co-Receptor/s entry is given as “MD2/CD14” and the Activity entry is “Inhibitor”.

Regarding “c[geldkftm] (all D-amino acids) (cyclo(G[dE][dL][dD][dK][dF][dT][dM]); SMILES CSCC[C@H]1NC(=O)[C@@H]([C@H](C)O)NC(=O)[C@@H](Cc2ccccc2)NC(=O)[C@@H](CCCCN)NC(=O)[C@@H](CC(=O)O)NC(=O)[C@@H](CC(C)C)NC(=O)[C@@H](CCC(=O)O)NC(=O)CNC1=O) [SEQ ID No. 21]”, in assay [1], the Co-Receptor/s result was “MD2/CD14” and the Activity entry is “Activator”.

“c[gfwseeeksl] (all D-amino acids) (cyclo(G[dF][dW][dS][dE][dE][dE][dK][dS][dL]); SMILES CC(C)C[C@H]1NC(=O)[C@@H](CO)NC(=O)[C@@H](CCCCN)NC(=O)[C@@H](CCC(=O)O)NC(=O)[C@@H](CCC(=O)O)NC(=O)[C@@H](CCC(=O)O)NC(=O)[C@@H](CO)NC(=O)[C@@H](Cc2c[nH]c3ccccc23)NC(=O)[C@@H](Cc2ccccc2)NC(=O)CNC1=O) [SEQ ID No. 22]”: in assay [1], the Co-Receptor/s entry is “MD2/CD14” and the Activity entry was “Activator”.

As for “c[gwlwrsl] (all D-amino acids) (cyclo(G[dW][dL][dW][dR][dS][dL]); SMILES CC(C)C[C@H]1NC(=O)[C@@H](CO)NC(=O)[C@@H](CCCNC(=N)N)NC(=O)[C@@H](Cc2c[nH]c3ccccc23)NC(=O)[C@@H](CC(C)C)NC(=O)[C@@H](Cc2c[nH]c3ccccc23)NC(=O)CNC1=O) [SEQ ID No. 19]”, in assay [1], the Co-Receptor/s entry is “MD2/CD14” and the Activity result is given as “Activator”.

With “c[gwwwral] (all D-amino acids) (cyclo(G[dW][dW][dW][dR][dA][dL]); SMILES CC(C)C[C@H]1NC(=O)[C@@H](C)NC(=O)[C@@H](CCCNC(=N)N)NC(=O)[C@@H](Cc2c[nH]c3ccccc23)NC(=O)[C@@H](Cc2c[nH]c3ccccc23)NC(=O)[C@@H](Cc2c[nH]c3ccccc23)NC(=O)CNC1=O) [SEQ ID No. 20]”, in assay [1], the Co-Receptor/s result is listed as “MD2/CD14” and the Activity entry is reported as “Inhibitor”.

“rmmmw (all D-amino acids, CH3 group replaces C-term) ([dR][dM][dM][dM][dW]-CH3) [SEQ ID No. 16]”: in assay [1], the Co-Receptor/s result is “MD2/CD14” and the Activity entry is given as “Activator”.

Turning to “tiymmmtmkg (all D-amino acids, both isoleucine chiral centers in D-enantiomer) [SEQ ID No. 18]”, in assay [1], the Co-Receptor/s entry is listed as “CD14” and the Activity result was “Activator”.

In the case of “wwikd (all D-amino acids, both isoleucine chiral centers in D-enantiomer) [SEQ ID No. 17]”, in assay [1], the Co-Receptor/s result is on record as “MD2/CD14” and the Activity result is recorded as “Activator”.
